Results on 16 compounds are retold here after patent US20240343704A1, “HALO-SUBSTITUTED AMINO PYRIDINE COMPOUNDS AS INHIBITORS OF THE HAEMATOPOIETIC PROGENITOR KINASE 1 (HPK1)” (priority 2021, published 2024).

One test has as its target Lck (h) (Homo sapiens, UniProt P06239). In words: Lck Human  Kinase Enzymatic Radiometric Assay. Format: biochemical. The note with it: read-out: Lck IC50 nM Range*. The method in brief:
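Substrate 33P-incorporation measured by scintillation counting after spotting on P30 filtermat and phosphoric acid washes. Human Lck reacted 40 min at RT in 50 mM Tris pH 7.5 with 10 mM MgAcetate, [gamma-33P]-ATP, 250 uM Cdc2 peptide, 0.1 mM EGTA and 0.1 mM Na3VO4.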

Test [1] concerns the target T1, Recombinant (1-346) HPK1 (h) (Homo sapiens, UniProt Q92918).
T1 construct: Recombinant (1-346) HPK1 (h) is incubated with 8 mM MOPS pH 7.0
T1 sequence (Q92918 1-346): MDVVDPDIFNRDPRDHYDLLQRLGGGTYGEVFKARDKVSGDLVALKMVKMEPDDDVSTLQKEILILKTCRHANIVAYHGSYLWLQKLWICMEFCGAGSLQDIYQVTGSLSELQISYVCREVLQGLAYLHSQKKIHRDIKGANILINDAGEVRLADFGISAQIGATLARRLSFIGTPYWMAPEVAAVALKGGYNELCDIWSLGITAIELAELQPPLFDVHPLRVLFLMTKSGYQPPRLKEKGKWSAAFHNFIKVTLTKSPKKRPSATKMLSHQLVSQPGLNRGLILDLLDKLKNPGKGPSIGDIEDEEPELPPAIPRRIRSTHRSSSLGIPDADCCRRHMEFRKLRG
In words: HPK1 Human STE Kinase Enzymatic Radiometric Assay. Format: biochemical. The settings on record: read-out: HPK1 IC50 nM Range*. The procedure: A stock solution of 10 mM of test compound is prepared in DMSO. The compound plate was prepared by 3-fold and 9-point serial dilutions. […] The reaction is initiated by The addition of the Mg/ATP mix. After incubation for 40 minutes at RT, the reaction is stopped by the addition of phosphoric acid to a concentration of 0.5%.

Structures can show the parent of a compound that is named as a salt.

Chain of Lck (h) (P06239 whole entry): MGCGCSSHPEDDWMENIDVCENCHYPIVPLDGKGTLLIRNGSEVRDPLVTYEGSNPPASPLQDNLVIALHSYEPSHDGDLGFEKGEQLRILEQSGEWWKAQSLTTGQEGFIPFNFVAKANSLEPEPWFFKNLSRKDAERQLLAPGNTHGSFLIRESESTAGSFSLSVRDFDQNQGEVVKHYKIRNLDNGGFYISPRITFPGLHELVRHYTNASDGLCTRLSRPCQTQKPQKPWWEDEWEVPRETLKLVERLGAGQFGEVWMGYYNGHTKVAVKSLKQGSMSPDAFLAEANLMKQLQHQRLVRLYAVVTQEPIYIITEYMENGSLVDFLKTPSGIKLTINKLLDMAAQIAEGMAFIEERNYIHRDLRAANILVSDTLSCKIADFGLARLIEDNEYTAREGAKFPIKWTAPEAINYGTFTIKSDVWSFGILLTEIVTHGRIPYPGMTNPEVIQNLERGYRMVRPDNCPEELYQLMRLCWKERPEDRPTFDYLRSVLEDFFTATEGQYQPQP

As to `CN1CCc2cc(-c3cc(-c4ccc5c(c4)CCNC5=O)c(N)nc3F)ccc21` [I-253, 6-(2-amino-6-fluoro-5-(1-methylindolin-5-yl)pyridin-3-yl)-3,4-dihydroisoquinolin-1(2H)-one], the IC50 at Lck (h) was over 1000 nM; in test [1], 11 to 100 nM.
Turning to `CC(C)N1CCC(Oc2ccc(-c3cc(-c4ccc5c(c4)CCNC5=O)c(N)nc3F)cc2C#N)CC1` [I-224, 5-(6-amino-2-fluoro-5-(1-oxo-1,2,3,4-tetrahydroisoquinolin-6-yl)pyridin-3-yl)-2-((1-isopropylpiperidin-4-yl)oxy)benzonitrile], the IC50 on Lck (h) was over 1000 nM; in test [1] it was 0.1 to 10 nM.
With `Nc1nc(F)c(-c2ccc3c(c2)CCC2(CCNCC2)O3)cc1-c1ccc2c(c1)CCNC2=O` [I-183, 6-(2-amino-6-fluoro-5-(spiro[chromane-2,4′-piperidin]-6-yl)pyridin-3-yl)-3,4-dihydroisoquinolin-1(2H)-one], the IC50 on Lck (h) was over 1000 nM; in test [1], 0.1 to 10 nM.
For `Nc1nc(F)c(-c2ccc(N3CCN(CCF)CC3)cc2)cc1-c1ccc2c(c1)CCNC2=O` [I-20, 6-(2-amino-6-fluoro-5-(4-(4-(2-fluoroethyl)piperazin-1-yl)phenyl)pyridin-3-yl)-3,4-dihydroisoquinolin-1(2H)-one] the same measures were over 1000 nM and 0.1 to 10 nM.
For `CN1CCN(c2ccc(-c3cc(-c4ccc5c(c4)CCNC5=O)c(N)nc3F)cc2C(F)(F)F)CC1` [I-68, 6-(2-amino-6-fluoro-5-(4-(4-methylpiperazin-1-yl)-3-(trifluoromethyl)phenyl)pyridin-3-yl)-3,4-dihydroisoquinolin-1(2H)-one] the same measures were over 1000 nM and 0.1 to 10 nM.
As for `C[C@@H]1CN(c2ccc(-c3cc(-c4ccc5c(c4)CCNC5=O)c(N)nc3F)cc2)C[C@H](C)N1` [I-319, 6-(2-amino-5-(4-((3R,5S)-3,5-dimethylpiperazin-1-yl)phenyl)-6-fluoropyridin-3-yl)-3,4-dihydroisoquinolin-1(2H)-one], the IC50 was over 1000 nM on Lck (h) and 0.1 to 10 nM in test [1].
Taken in the same sequence, the figures for `N#Cc1cc(-c2cc(-c3cc4c(cc3F)C(=O)NCC4)c(N)nc2F)ccc1OC1CCNCC1` [I-289, 5-(6-amino-2-fluoro-5-(7-fluoro-1-oxo-1,2,3,4-tetrahydroisoquinolin-6-yl)pyridin-3-yl)-2-(piperidin-4-yloxy)benzonitrile] were over 1000 nM and 11 to 100 nM.
Taken in the same sequence, the figures for `CS(=O)(=O)N1CCC(Oc2ccc(-c3cc(-c4ccc5c(c4)CCNC5=O)c(N)nc3F)cc2)CC1` [I-54, 6-(2-amino-6-fluoro-5-(4-((1-(methylsulfonyl)piperidin-4-yl)oxy)phenyl)pyridin-3-yl)-3,4-dihydroisoquinolin-1(2H)-one] were over 1000 nM and 0.1 to 10 nM.
Taken in the same sequence, the figures for `Nc1nc(F)c(-c2ccc(N3CCOCC3)cc2)cc1-c1cc(F)c2c(=O)[nH]ccc2c1` [I-396, 6-(2-amino-6-fluoro-5-(4-morpholinophenyl)pyridin-3-yl)-8-fluoroisoquinolin-1(2H)-one] were over 1000 nM and 0.1 to 10 nM.
Turning to `Nc1nc(F)c(-c2cccc(CN3CCNCC3)c2)cc1-c1ccc2c(c1)CCNC2=O` [I-265, 6-(2-amino-6-fluoro-5-(3-(piperazin-1-ylmethyl)phenyl)pyridin-3-yl)-3,4-dihydroisoquinolin-1(2H)-one formate], the IC50 is over 1000 nM at Lck (h) and 11 to 100 nM in test [1].
For `CC(C)[C@@H]1CN(c2ccc(-c3cc(-c4ccc5c(c4)CCNC5=O)c(N)nc3Cl)c(F)c2)CCO1` [I-137, (R)-6-(2-amino-6-chloro-5-(2-fluoro-4-(2-isopropylmorpholino)phenyl)pyridin-3-yl)-3,4-dihydroisoquinolin-1(2H)-one] the same measures were over 1000 nM and 11 to 100 nM.
As for `Nc1nc(F)c(-c2ccc(N3CCOCC3)cn2)cc1-c1ccc2c(c1)CCNC2=O` [I-26, 6-(6′-amino-2′-fluoro-5-morpholino-[2,3′-bipyridin]-5′-yl)-3,4-dihydroisoquinolin-1(2H)-one], the IC50 on Lck (h) is over 1000 nM; in test [1] it was 0.1 to 10 nM.
Taken in the same sequence, the figures for `CC(C)N1CCN(c2ccc(-c3cc(-c4cc5c(cc4Cl)C(=O)NCC5)c(N)nc3F)cc2)CC1` [I-349, 6-(2-amino-6-fluoro-5-(4-(4-isopropylpiperazin-1-yl)phenyl)pyridin-3-yl)-7-chloro-3,4-dihydroisoquinolin-1(2H)-one] were over 1000 nM and 0.1 to 10 nM.
Taken in the same sequence, the figures for `CC(C)[C@H]1CN(c2ccc(-c3cnc(N)c(-c4ccc5c(c4)CCNC5=O)c3F)cc2)CCO1` [I-5, (S)-6-(2-amino-4-fluoro-5-(4-(2-isopropylmorpholino)phenyl)pyridin-3-yl)-3,4-dihydroisoquinolin-1(2H)-one] were over 1000 nM and 11 to 100 nM.
Taken in the same sequence, the figures for `CC(C)N1CCN(c2ccc(-c3cc(-c4ccc5c(c4)CCNC5=O)c(N)nc3F)cc2)CC1` [I-42, 6-(2-amino-6-fluoro-5-(4-(4-isopropylpiperazin-1-yl)phenyl)pyridin-3-yl)-3,4-dihydroisoquinolin-1(2H)-one] were over 1000 nM and 0.1 to 10 nM.
As to `CC(=O)N1CCC2(CC1)CC(=O)c1cc(-c3cc(-c4ccc5c(c4)CCNC5=O)c(N)nc3F)ccc1O2` [I-192, 1′-acetyl-6-(6-amino-2-fluoro-5-(1-oxo-1,2,3,4-tetrahydroisoquinolin-6-yl)pyridin-3-yl)spiro[chromane-2,4′-piperidin]-4-one], the IC50 was over 1000 nM on Lck (h) and 0.1 to 10 nM in test [1].

What is called IC50 is the concentration needed to halve the response being measured.
